Here are results for five compounds from patent US5053408A, “Hexitol derivatives having vasodilative activity” (Kyowa Hakko Kogyo Co., Ltd., priority 1989, dated 1991).

Counter-ions that a name gives are not always drawn. Like-named read-outs stand apart in the source and are kept apart here.

Series [1] relates to coronary vasospasm model (lysine-vasopressin). The series can be described thus: Effects on coronary vasospasm model (lysine-vasopressin test), inhibition of ST-segment elevation. Type of series: in vivo, male Wistar rats. The note with it: Rattus norvegicus, lysine-vasopressin 0.3 I.U./kg iv, MED = minimum dose with depression rate of 20% or higher.
The subject of another series is male dd-mice. The series can be described thus: Acute toxicity. The note with it: mouse, in vivo, 10080 min; for MLD i.p.: ip; for MLD p.o.: po. As for the experimental part:
The compounds were orally administered and intraperitoneally administered to male dd-mice weighing 20 to 25 g. […] was determined by observing the mortality for seven days after the administration.

The mark [2] stands for this setting: ip, 20 min before anesthetization, read-out: Coronary vasoconstriction model MED i.p.
Setting [3] is: po, 30 min before anesthetization, read-out: Coronary vasoconstriction model MED p.o.

On to `O[C@H]1CO[C@H]2[C@@H]1OC[C@@H]2N1CCN(CCCOc2ccccc2)CC1` [Compound 102, 5-Deoxy-5-[4-(3-phenoxypropyl)piperazin-1-yl]-1.4;3.6-dianhydro-L-iditol hydrochloride], for which, in series [1] (setting [2]), the minimal effective dose is < 25 mg/kg. In series [1] (setting [3]), the minimal effective dose was < 30 mg/kg. In the series on male dd-mice, the MLD i.p. is reported as > 100 mg/kg and the MLD p.o. is reported as > 300 mg/kg.

With `O=C(c1cccs1)N1CCN([C@H]2CO[C@H]3[C@@H]2OC[C@@H]3O[N+](=O)[O-])CC1` [Compound 111, 5-Deoxy-5-[4-(thiophen-2-yl)carbonylpiperazin-1-yl]-1.4;3.6-dianhydro-L-iditol 2-nitrate hydrochloride], the minimal effective dose in series [1] (setting [3]) was < 30 mg/kg. In the series on male dd-mice, the MLD i.p. is on record as > 100 mg/kg and the MLD p.o. is recorded as > 300 mg/kg.

As to `O=C(c1ccoc1)N1CCN([C@H]2CO[C@H]3[C@@H]2OC[C@@H]3O[N+](=O)[O-])CC1` [Compound 112, 5-Deoxy-5-[4-(furan-3-yl)carbonylpiperazin-1-yl]-1.4;3.6-dianhydro-L-iditol2-nitrate hydrochloride], in series [1] (setting [3]), the minimal effective dose is < 30 mg/kg. In the series with male dd-mice, the MLD i.p. is > 100 mg/kg and the MLD p.o. is on record as > 300 mg/kg.

For `O=C(c1cccnc1)N1CC[N+]([O-])([C@H]2CO[C@H]3[C@@H]2OC[C@@H]3O[N+](=O)[O-])CC1` [Compound 113, 5-Deoxy-5-[4-(pyridin-3-yl)carbonylpiperazin N^1-oxid-1-yl]-1.4;3.6-dianhydro-L-iditol 2-nitrate hydrochloride], in series [1] (setting [2]), the minimal effective dose was < 25 mg/kg. For the same compound, in the series with male dd-mice, the MLD i.p. is given as > 100 mg/kg and the MLD p.o. was > 300 mg/kg.

For `O=C(c1ccc(O)nc1)N1CCN([C@H]2CO[C@H]3[C@@H]2OC[C@@H]3O[N+](=O)[O-])CC1` [Compound 114, 5-Deoxy-5-[4-(6-hydroxypyridin-3-yl)carbonylpiperazin-1-yl]-1.4;3.6-dianhydro-L-iditol 2-nitrate hydrochloride], the minimal effective dose in series [1] (setting [3]) was < 30 mg/kg. Also, in the series on male dd-mice, the MLD i.p. is given as > 100 mg/kg and the MLD p.o. was > 300 mg/kg.
